Assays:
[1] = cited from earlier work
[2] = Particle size distribution by laser light scattering (Malvern); format: physicochemical; conditions: zaleplon used in Example 15 capsules; method not stated

Structure (SMILES)	elimination half-life ([1]; in vivo) [h]	onset of action ([1]; usually) [min]	D90 [2] [μm]
Cc1ccc(-c2nc3ccc(C)cn3c2CC(=O)N(C)C)cc1 [Zolpidem, N,N, 6-trimethyl-2-p-tolyl-imidazo[1,2-a]pyridine-3-acetamide]	2 to 3	≤ 15	
CCN(C(C)=O)c1cccc(-c2ccnc3c(C#N)cnn23)c1 [Zaleplon, N-[3-(3-cyanopyrazolo[1,5-α]pyrimidin-7-yl)phenyl]-N-ethylacetamide]			195
